From ChEMBL document CHEMBL1926613, “Bisubstrate analogue inhibitors of 6-hydroxymethyl-7,8-dihydropterin pyrophosphokinase: New design with improved properties” (Bioorg Med Chem, 2012)

Tests used:
[1] = target: T1, 2-amino-4-hydroxy-6-hydroxymethyldihydropteridine pyrophosphokinase (Escherichia coli (strain K12), UniProt P26281); experiment: Inhibition of Escherichia coli HPPK using 6-hydroxymethyl-7,8-dihydropterin as substrate and [32P]-ATP
T1 sequence (P26281 whole entry): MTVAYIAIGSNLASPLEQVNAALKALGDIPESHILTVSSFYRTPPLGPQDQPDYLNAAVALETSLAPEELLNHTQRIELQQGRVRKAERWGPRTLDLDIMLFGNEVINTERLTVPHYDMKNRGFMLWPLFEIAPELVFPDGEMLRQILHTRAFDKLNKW

[2] = target: T1, 2-amino-4-hydroxy-6-hydroxymethyldihydropteridine pyrophosphokinase; experiment: Binding affinity to Escherichia coli HPPK using 6-hydroxymethyl-7,8-dihydropterin as substrate and ATP by fluorometric analysis

Row | Compound | IC50 [1] [nM] | Kd [2] [nM]
1 | Nc1nc2ncc(CNCCN3CCC(SC[C@H]4O[C@@H](n5cnc6c(N)ncnc65)[C@H](O)[C@@H]4O)CC3)nc2c(=O)[nH]1 | > 100000 | > 150000
2 | CC1(C)Nc2nc(N)[nH]c(=O)c2N=C1C(=O)NCCN1CCC(SC[C@H]2O[C@@H](n3cnc4c(N)ncnc43)[C@H](O)[C@@H]2O)CC1 | 3160 | 2550
3 | Nc1nc2ncc(COP(=O)(O)OP(=O)(O)OP(=O)(O)OP(=O)(O)OC[C@H]3O[C@@H](n4cnc5c(N)ncnc54)[C@H](O)[C@@H]3O)nc2c(=O)[nH]1 | 440 | 470
